We go through 13 molecules from PubChem BioAssay (NCI).

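96-well plates; 48 h exposure; 5 concentrations. Endpoints by linear interpolation between flanking doses. Not reached: highest tested concentration assigned. TGI marks complete inhibition of growth.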 Some results are limits rather than exact numbers.

Among the test systems are A498 renal; OVCAR-8 ovarian; A549 NSCLC; NCI-H522 lung; NCI/ADR-RES ovarian; SN12C renal; SNB-75 CNS; SNB-19 CNS; SF-295 CNS; SK-MEL-2 melanoma.
Assay in all cases: inhibition of tumour cell growth, NCI panel, 48 h

Take `CN(C)CCC(C#N)(c1ccccc1)c1ccccc1`: the TGI in the experiment on A498 renal, with OVCAR-8 ovarian, with A549 NSCLC, in the experiment with NCI-H522 lung, in the experiment with NCI/ADR-RES ovarian and in the experiment on SN12C renal was above 100 µM throughout. Further, the TGI in the experiment on SNB-75 CNS, in the experiment with SNB-19 CNS, in the experiment on SF-295 CNS and in the experiment with SK-MEL-2 melanoma was above 100 µM each time.
`CC(=O)C1=C(C)N2C(=NC3=C(CCc4ccccc43)C2c2ccc(Cl)cc2)S1` (stereo unspecified): the TGI is 51 µM in the experiment with A498 renal; above 100 µM in the experiment with OVCAR-8 ovarian; above 100 µM in the experiment with A549 NSCLC; 82.7 µM in the experiment on NCI-H522 lung; above 100 µM in the experiment with NCI/ADR-RES ovarian; above 100 µM with SN12C renal. The TGI in the experiment on SNB-75 CNS, in the experiment with SNB-19 CNS, with SF-295 CNS and with SK-MEL-2 melanoma was above 100 µM each time.
As for `CC(=O)O[C@H]1CC[C@@]2(C)C(=CC[C@@H]3[C@@H]2CC[C@]2(C)C(=O)/C(=C\c4ccccc4)C[C@@H]32)C1`, the TGI with A498 renal, in the experiment on OVCAR-8 ovarian, in the experiment with A549 NSCLC, in the experiment on NCI-H522 lung, with NCI/ADR-RES ovarian and with SN12C renal was above 100 µM in each case. Further, the TGI with SNB-75 CNS, in the experiment on SNB-19 CNS, in the experiment with SF-295 CNS and in the experiment on SK-MEL-2 melanoma was above 100 µM each time.
For `O=C(c1ccccc1)N1N=C(C(F)(F)F)CC1(O)C(F)(F)F` (stereo unspecified), the TGI in the experiment with A498 renal, with OVCAR-8 ovarian, with A549 NSCLC, in the experiment with NCI-H522 lung, in the experiment on NCI/ADR-RES ovarian and with SN12C renal was above 100 µM throughout. Moreover, the TGI in the experiment on SNB-75 CNS, in the experiment with SNB-19 CNS, in the experiment with SF-295 CNS and in the experiment on SK-MEL-2 melanoma was above 100 µM each time.
For `CC(=O)OC1=C(c2ccccc2)S(=O)(=O)c2ccccc21`, the TGI in the experiment with A498 renal, in the experiment on OVCAR-8 ovarian, in the experiment on A549 NSCLC, in the experiment on NCI-H522 lung, in the experiment with NCI/ADR-RES ovarian and in the experiment with SNB-75 CNS was above 100 µM in each case. Moreover, the TGI in the experiment with SNB-19 CNS, with SF-295 CNS and with SK-MEL-2 melanoma was above 100 µM throughout.
In the case of `CC(=O)OCC1OC(Sc2nc(-c3ccccc3)c(C#N)c(=O)n2C2OC(COC(C)=O)C(OC(C)=O)C(OC(C)=O)C2OC(C)=O)C(OC(C)=O)C(OC(C)=O)C1OC(C)=O` (stereo unspecified), the TGI in the experiment with A498 renal, with OVCAR-8 ovarian, in the experiment on A549 NSCLC, with NCI-H522 lung, in the experiment on NCI/ADR-RES ovarian and in the experiment on SN12C renal was above 100 µM each time. Further, the TGI in the experiment on SNB-75 CNS, with SF-295 CNS and with SK-MEL-2 melanoma was above 100 µM each time.
For the molecule `COc1ccc(Cc2nc3cc(C(F)(F)F)ccc3n2C[C@@H]2CCCN3CCCCC23)cc1` (stereo partly specified), the TGI with A498 renal was 14.1 µM; with OVCAR-8 ovarian, 30.3 µM; in the experiment on A549 NSCLC it was 24.7 µM; with NCI-H522 lung, 21.8 µM; in the experiment on NCI/ADR-RES ovarian, 30.7 µM; in the experiment on SN12C renal, 22.3 µM. In addition, the TGI was 77.4 µM in the experiment with SNB-75 CNS, 27.4 µM in the experiment with SNB-19 CNS, 12.3 µM with SF-295 CNS and 30.1 µM in the experiment on SK-MEL-2 melanoma.
`CC(=O)OCCn1c(Cc2ccc(Cl)cc2)nn(C(C)=O)c1=O`: the TGI in the experiment with A498 renal, in the experiment on OVCAR-8 ovarian, in the experiment with A549 NSCLC, in the experiment on NCI-H522 lung, in the experiment with NCI/ADR-RES ovarian and with SN12C renal was above 100 µM in each case. Moreover, the TGI in the experiment with SNB-19 CNS, in the experiment on SF-295 CNS and in the experiment with SK-MEL-2 melanoma was above 100 µM each time.
With `COc1cc(CCNC2=CC(=O)c3ncccc3C2=O)ccc1O`, the TGI was 32.4 µM in the experiment with A498 renal; 14.3 µM with OVCAR-8 ovarian; 6.44 µM in the experiment with A549 NSCLC; 10.3 µM in the experiment on NCI-H522 lung; above 23.3 µM with NCI/ADR-RES ovarian; 6.71 µM with SN12C renal. The TGI in the experiment on SNB-75 CNS came to 4.73 µM; in the experiment with SNB-19 CNS, 17.7 µM; in the experiment on SF-295 CNS, 4.02 µM; with SK-MEL-2 melanoma, 9.79 µM.
Turning to `N#Cc1nc(CCC(C(=O)O)N2C(=O)c3ccccc3C2=O)oc1N` (stereo unspecified), the TGI with A498 renal, with OVCAR-8 ovarian, in the experiment on A549 NSCLC, in the experiment on NCI-H522 lung, in the experiment on NCI/ADR-RES ovarian and in the experiment with SN12C renal was above 100 µM throughout. Also, the TGI with SNB-75 CNS, in the experiment with SNB-19 CNS, with SF-295 CNS and in the experiment on SK-MEL-2 melanoma was above 100 µM in each case.
As to `COc1cc(Nc2nc(NS(=O)(=O)c3cc(C)c(Cl)cc3S)n[nH]2)cc(OC)c1OC`, the TGI with A498 renal, with OVCAR-8 ovarian, in the experiment with A549 NSCLC, with NCI-H522 lung, in the experiment with NCI/ADR-RES ovarian and in the experiment with SN12C renal was above 100 µM each time. The TGI in the experiment on SNB-75 CNS, in the experiment with SNB-19 CNS, in the experiment on SF-295 CNS and in the experiment on SK-MEL-2 melanoma was above 100 µM each time.
Take `O=C1C(CN2CCCC2)CCC1CN1CCCC1` (stereo unspecified): the TGI with A498 renal is above 100 µM; in the experiment on OVCAR-8 ovarian, 37.5 µM; with A549 NSCLC, above 100 µM; in the experiment on NCI-H522 lung, 3.52 µM; with NCI/ADR-RES ovarian it was 56.8 µM; in the experiment on SN12C renal, above 53 µM. Besides, the TGI in the experiment with SNB-75 CNS was 33.4 µM; in the experiment with SNB-19 CNS, above 100 µM; with SF-295 CNS, above 100 µM; with SK-MEL-2 melanoma, 47.1 µM.
Take `COC(=O)[C@]1(CCC(C)=O)C(=O)C=CN([C@H](C)c2ccccc2)[C@@H]1Cc1ccc(OC)c(OCc2ccccc2)c1I`: the TGI came to 50.1 µM in the experiment with A498 renal; 85.2 µM in the experiment on OVCAR-8 ovarian; 73.5 µM in the experiment with A549 NSCLC; 41.6 µM with NCI-H522 lung; 62.8 µM in the experiment with NCI/ADR-RES ovarian; 35 µM with SN12C renal. The TGI in the experiment on SNB-19 CNS is 81.8 µM; in the experiment with SF-295 CNS, 35.2 µM; with SK-MEL-2 melanoma it was 31.7 µM.
